Measured values from patent US20180003613A1, “Phenotypic High-Content Assay to Evaluate Drugs” (Texas Tech University System, priority 2015, published 2018).
Entries after “also recorded” stand apart in the source; their conditions may differ.

Legend:
AGT-170 cells = assay: Phenotypic cell based AGT/peroxisome co-localization high content assay (Pearson's colocalization coefficient), AGT-170 cells; parameters: species or system Chinese hamster; settings: for % rescue (normalized AGT co-localization): pilot screen, 1536 well, FIG. 3, normalized to AGT-mi (high) and AGT-170 (low) DMSO controls, 4 μM final stated for pilot screen
Experimental: After an overnight incubation time at 37 C, 95% relative humidity and 5% CO2, cells were treated with DMSO or glycerol at different concentrations. After 2 days, cells were fixed with 4% paraformaldehyde, washed 3 times with PBS and permeabilized for 10-30 min with 0.1% Triton X-100 in PBS (PBS-TX). Cells were then stained with a guinea pig anti-AGT “A1” antibody (1:10,000) and a rabbit anti-PMP70 antibody (Ab3421, 1:500) in PBS-TX containing 0.5% goat serum. After 3 PBS washes, anti-rabbit AF488 and anti-guinea pig AF546 secondary antibodies (both at 1:10,000), as well as Hoeschst at 10 ug/mL were added to each well. Images were acquired with a 20× objective on the CellInsight (Cellomics). Puncta labeled with the anti-PMP70 antibody (labeling peroxisomes) and the anti-AGT antibody are detected in the green and red channels, respectively. Colocalization of the two populations of puncta was determined via calculation of the Pearson Colocalization Coefficient using Cellomics' “Colocalization” BioApplication. Here, miAGT cells are non-mutant AGT expressing CHO cells while the mutant AGT cells are references as 170s. The concentration of glycerol used in […] is listed in both the bar graph and the scatterplot. 4 replicates per condition were done and Z′ and S:B are calculated from the untreated AGT 170 cells versus the miAGT cells.
384-well plate assay protocol. Briefly, AGT-170 cells (and AGTmi cells that serve as a positive control) were seeded in black, square, IQ™ 100 μ384-well plates (Aurora, Brooks, Chelmsford, Mass.) at 500 cells/wells using a Flying Reagent Dispenser (FRD, Beckman Coulter, Brea, Calif.). After an overnight incubation at 37° C., 95% relative humidity (RH) and 5% CO2, cells were treated with 100 nL test compounds or DMSO for the positive and negative wells with a pintool transfer unit (GNF). Plates were then placed in an incubator for three days at 37° C., 95% RH and 5% CO2, immunostained and acquired on a high content imager as described below.
Immunostaining. Following treatment and incubation as described above, cells were fixed by the addition of 2× fixation solution (8% paraformaldehyde-PFA) using a FRD. Plates were then washed 3 times with PBS on the Squirt microplate washer using a 12° nozzle tilt and 15 PSI pressure according to the user's manual for washing normal binding cells in 384-well plate format (Brook, Chelmsford, Mass.). Cells were then permeabilized by dispensing a solution of 0.1% Triton X-100 in PBS (PBS-TX) and incubated for 10-30 minutes. Next, cells were stained with a guinea pig anti-AGT “A1” antibody (Danpure's Lab, London, UK; 1:10,000) and a rabbit anti-PMP70 antibody (Abcam, Cambridge, Mass.; 1:500) in PBS-TX containing 0.5% goat serum. After 3 PBS washes, anti-rabbit AF488 and anti-guinea pig AF546 secondary antibodies (Molecular Probes, Eugene, Oreg.; both at 1:10,000), as well as Hoechst at 10 μg/mL were added to each well. Thirty minutes later, plates were washed 3 times, filled with 50 μL/well of PBS and sealed with black tape.
Image acquisition and analysis. Plates were read and images acquired with the CellInsight high content reader (Thermo Fisher Scientific, Pittsburgh, Pa.) using a 20× objective. A detailed and illustrated description of the image acquisition and analysis is presented FIGS. 1A to 1H. A maximum of 9 fields of view per well were acquired, yielding an average of ≈700 cells detected. The nuclear stain channel (Hoechst, 386 nm, 9.8 milliseconds exposure time) was used to focus on the cell layer. Puncta labeled with the anti-PMP70 antibody (labeling peroxisomes) and the anti-AGT antibody were acquired in the green (485 nm, 40 milliseconds exposure) and red (549 nm, 15 milliseconds exposure) channels, respectively. Nuclei were detected using the fixed threshold method with an intensity threshold of 300. Next, a cytoplasmic region of interest was created around each nucleus by creating a ring with a distance of 1 pixel from the nucleus and a width of 8 pixels. […]

CHO cells = assay: Cytotoxicity / cell viability seen in the high content assay (HCS images); assay type: cell-based, Chinese hamster
Experimental: In order to assess the ability to induce and detect an increase in the Pearson's colocalization coefficient, both AGTmi and AGT-170 cells were treated with glycerol, which is a viscous polyol compound known to enhance the stability of proteins in solution. This co-solvent shifts the native protein to more compact states and inhibits protein-protein aggregation while proteins are being refolded during biological synthesis. […] Concentrations of glycerol higher than 5% affected cell viability and prevented accurate determination of the Pearson's colocalization coefficient; for these reasons, they were avoided. To probe the robustness of the assay, the glycerol titration assay was repeated on two separate plates. […] The Z′-factor, a statistical measurement indicative of HTS-readiness, was calculated between the AGT-170 cells in absence and presence of 5% glycerol and found to be 0.58, and at 0.81 between untreated AGT-170 and AGTmi cells.
Fresh powders, solvated in DMSO, were obtained and reformatted as ten point three fold serial dilutions and proceeded to test them in the same assay as described above. […] All data was imported into the Scripps database, assessed for quality control in terms of Z′, S:B and CV (i.e., quality controlled), and curves were fitted using a 4-parameter algorithm without constraining the top or bottom asymptote. […]

AGTmi cells = assay: AGT/peroxisome co-localization high content assay, AGTmi cells, glycerol treatment; assay type: cell-based, Chinese hamster
Experimental: After an overnight incubation time at 37 C, 95% relative humidity and 5% CO2, cells were treated with DMSO or glycerol at different concentrations. After 2 days, cells were fixed with 4% paraformaldehyde, washed 3 times with PBS and permeabilized for 10-30 min with 0.1% Triton X-100 in PBS (PBS-TX). Cells were then stained with a guinea pig anti-AGT “A1” antibody (1:10,000) and a rabbit anti-PMP70 antibody (Ab3421, 1:500) in PBS-TX containing 0.5% goat serum. After 3 PBS washes, anti-rabbit AF488 and anti-guinea pig AF546 secondary antibodies (both at 1:10,000), as well as Hoeschst at 10 ug/mL were added to each well. Images were acquired with a 20× objective on the CellInsight (Cellomics). Puncta labeled with the anti-PMP70 antibody (labeling peroxisomes) and the anti-AGT antibody are detected in the green and red channels, respectively. Colocalization of the two populations of puncta was determined via calculation of the Pearson Colocalization Coefficient using Cellomics' “Colocalization” BioApplication. […] 4 replicates per condition were done and Z′ and S:B are calculated from the untreated AGT 170 cells versus the miAGT cells.
Image acquisition and analysis. Plates were read and images acquired with the CellInsight high content reader (Thermo Fisher Scientific, Pittsburgh, Pa.) using a 20× objective. […]

[1] = fresh powders, ten point three fold serial dilutions, 25 uM highest concentration, FIG. 5

Molecule: CC(NCCC(c1ccccc1)c1ccccc1)c1ccccc1 (stereo not shown) [Fendiline]
- Activity in concentration response curves (AGT-170 cells; [1]): inactive; also recorded: did not show significant activity
- Toxicity by eye when observing HCS images (CHO cells; concentration response test, FIG. 5 and FIG. 6): appears toxic at higher concentrations; also recorded: appeared toxic at 10 uM

Molecule: OCC(O)CO [glycerol]
- Effect on AGT mutant (colocalization with peroxisomes) (AGT-170 cells; 1536-well plates, 2 days treatment, FIG. 1): stabilizing the AGT mutant
- fold increase of Pearson's colocalization coefficient (AGT-170 cells; AGT-170 cells, glycerol treatment): 1.91 fold
- Pearson's colocalization coefficient after glycerol treatment (AGT-170 cells; AGT-170 cells, increasing concentrations of glycerol, n=4, untreated 0.41±0.01): 0.80±0.04
- fold increase of Pearson's values (AGTmi cells): ~1.10 fold
- Concentration that affected cell viability (CHO cells; glycerol titration, prevented accurate determination of the Pearson's coefficient): higher than 5%

Molecule: CC[C@@]1([C@@H]2O[C@@H]([C@H]3O[C@@](O)(CO)[C@H](C)C[C@@H]3C)C[C@@H]2C)CC[C@H]([C@]2(C)CC[C@]3(C[C@H](O)[C@@H](C)[C@@H]([C@@H](C)[C@@H](OC)[C@H](C)C(=O)O)O3)O2)O1 [Monensin]
- EC50 potency from concentration response curves (AGT-170 cells; [1]): low micromolar potency
- % rescue (normalized AGT co-localization) (AGT-170 cells): 84%

Molecule: 26-Deoxymonensin B
- % rescue (normalized AGT co-localization) (AGT-170 cells): 73%
